Assay results reported in patent US6365616B1, “Methimazole derivatives and tautomeric cyclic thiones to treat autoimmune diseases” (Sentron Medical, Inc., priority 1998, dated 2002).

Experiments:
[1] = system: protein/DNA complex with Fragment 127 of the MHC class I 5′-flanking region; test: Gel shift (EMSA) with downstream 127 class I probe, extracts from treated FRTL-5 cells; assay type: cell-based, rat; conditions: 5H cells treated 48 hours
Description: Cells were grown in 6H medium with 5 % calf serum for 6-7 days to 70-80% confluence, then shifted to 5H medium with 5 % calf serum for 5 days. TSH (1×10^−10 M), gamma-interferon (100 U/ml), MMI (5 mM), and different concentrations of MMI derivatives or tautomeric cyclic thiones (0.0001 to 10 mM) were added as appropriate for […]. Cells were then harvested and extracts were made by a modification of a method of Dignam, J., et al. Methods in Enzymology, 101:582-598 (1983). In brief, cells were harvested by scraping after being washed twice with cold phosphate-buffer saline (PBS). Subsequently they were pelleted, washed in cold PBS and then pelleted again. The pellet was resuspended in Dignam buffer C (20 mM Hepes buffer at pH 7.9, 1.5 mM MgCl2, 0.42 M NaCl, 25% glycerol, 0.5 mM dithiotreitol (DTT), 0.5 mM phenylmethylsulfonylfluoride (PMSF), 1 […] pepstatin). The final NaCl concentration was adjusted on the basis of cell pellet volume to 0.42 M and cells were lysed by repeated cycles of freezing and thawing. Extracts were then centrifuged at 10,000×g at 4° C. for 20 min. The supernatant was recovered, aliquoted and stored at −70° C.
Binding reactions were performed in a volume of 20 μl for 30 min at room temperature. The typical reaction mixture contained 1.5 fmol of ^32P DNA, 3 μg of cell extracts, 1 to 3 μg of poly (dI-dC) in 10 mM Tris-Cl (pH 7.9), 1 mM MgCl2, 1 mM DTT, 1 mM ethylenediamine tetra acetic acid (EDTA), and 5 % glycerol. After incubation, reaction mixtures were subjected to electrophoresis in 4% polyacrylamide gels for 90-120 min at 160 V in 0.5× TBE (Sambrook, J., et al., Molecular Cloning: A Laboratory Manual, 2nd ed. Cold Spring Harbor Press, NY, 2: 11.23-11.44 (1989)), then dried and autoradiographed. Probes were labeled with [α32P] deoxy CTP by Klenow enzyme (In Vitro labeling kit, Amersham) following the manufacturer's instructions, or by [γ^32P] ATP using T4 polynucleotide kinase. Labeled probes were then purified either through G-50 columns (5 prime→3 Prime) or on an 8% polyacrylamide gel.
FIG. 3 denotes the sequence of the downstream region of the PD1 promoter. The location of enhancer A (−180 to −170 bp), the interferon response element (IRE; −161 to −150 bp), and the cAMP response element (CRE; −107 to −100 bp) are noted. The downstream silencer is between −127 and −80 bp (Saji, et al., ibid, 20096-20107 (1997)). Using a 127 bp probe, −125 to +1 bp, MMI (lane 4) or TSH (lane 10) induce the formation of a rapidly migrating protein/DNA complex (FIG. 4) which is clearly evident 24 to 48 h after SH cells are treated. MMI derivatives can also increase this complex, as illustrated for compound 8 in FIG. 4 (lanes 1 to 3). The time most suitable for measurement is 24 to 48 h (FIG. 4) the complex can be quantitated by comparison to control (lane 7 or 9) using densitometry or the phosphoimager as noted earlier. In this case, the increase over control (set at 1) is measured in arbitrary units relative to the maximal increase induced by 5 mM MMI which is arbitrarily set at 10. The results using all 11 compounds in Table 1, each added to cells at different concentrations 48 hours before extracts were prepared, are summarized in Table 3.

MHC class II RNA = test: Northern analysis of MHC class II RNA levels in FRTL-5 cells; assay type: cell-based, rat; conditions: 100 U/ml γ-interferon, 6H medium, 40 hours
thyroglobulin RNA = test: Northern analysis of thyroglobulin RNA levels in FRTL-5 cells; assay type: cell-based, rat; conditions: for % increase in TG RNA expression: 1 mM, 6H medium, 40 hours
[2] = system: MHC class II antigen expression; test: Flow cytometry of IFN-increased class II antigen expression in FRTL-5 cells; assay type: cell-based, rat; conditions: for Concentration to inhibit IFN-increased antigen expression, Class II: 100 U/ml γ-interferon, 6H medium (TSH), 40 hours
Description: […] 13 and 14. Cells were stained with a fluorescein isothiocyanate conjugated class II-specific monoclonal antibody to RT1.B (clone OX-6, Sera Labs, UK) for 60 min at 4° C., washed twice with Dulbecco's phosphate buffered saline, and subjected to laser flow cytometry.
In this experiment 10^6 cells were incubated with MHC class II or MHC class I-specific antibodies as described (Montani, V., et al., ibid (1998b); Saji, M., et al., ibid (1992a); Balducci-Silano, P. L., et al., Endocrinology 139:2309-2313 (1998)). After 30 min on ice, cells were washed with phosphate buffered saline at pH 7.4 and incubated for 30 min with fluorescein-isothiocyanate (FITC)-conjugated antibodies then analyzed by flow cytometry on a FACScan Cytometer using CellQuest software (Becton Dickinson).
The concentration needed to achieve suppression of the interferon induced class I or class II surface expression was determined by testing different concentrations of the compounds (Table 18). Like all other assays, the order of effectiveness was compound 10>11>7 or 8>2>MMI>3.

(NZB x NZW)F1 mice = test: Prevention of proteinuria (SLE model) in female (NZB x NZW)F1 mice; assay type: in vivo; conditions: for Animals with proteinuria, 30-500 (mg/dl proteinuria) / Animals with proteinuria, >500 (mg/dl proteinuria) / Animals with proteinuria, Neg-Trace (mg/dl proteinuria) / development of proteinuria at 7.5 mos: oral; for Animals with proteinuria, 30-500 (mg/dl proteinuria) / Animals with proteinuria, >500 (mg/dl proteinuria) / Animals with proteinuria, Neg-Trace (mg/dl proteinuria): 0.05% MMI, 0.01% 5-phenylmethimazole, 0.05% 2-mercaptoimidazole; for development of proteinuria at 7.5 mos: compound 10 at a fifth the MMI concentration
Source text: Female (NZB x NZW)F1 mice were obtained from Jackson Labs. Animals were followed with AMES 2855 Uristix (Miles) to semiquantitatively measure proteinuria. Proteinuria was taken as a measure of development of SLE and MMI suppression of proteinuria as suppression of renal complexes in kidney (Mozes et al., J. Clin Immunology 18:106-113 (1998)). At 7-8 mos. mice develop proteinuria reflecting renal disease. Treatment was from 2 mos to 6 mos of age. Treatment was oral. Each group had 8 animals to start.
In this experiment, immunohistology was performed in a blind fashion on 5 μm thick frozen kidney sections which were fixed and stained with FITC-conjugated goat antibodies to immunoglobulin G (γ chain specific) as described (Mozes, et al., Science 261:91-93 (1993); Mozes, E., et al., ibid (1998)). Compound 10, a tautomeric cyclic thione, and MMI are effective in preventing SLE in this experimental model.
Death of some animals in this experiment occurred for technical reasons, i.e. flooding of cages, handling, etc., in the last 2 mos. However, losses in the control group were similar to experimental groups. MMI, 2-mercaptoimidazole, and Compound 10 treatments were administered during the period between 2 and 6.25 months of age.

SMILES | % increase over control relative to the maximal (5 mM) MMI-increased silencer complex which is set at 10 ([1]; 10 μM) [%] | % increase over control relative to the maximal (5 mM) MMI-increased silencer complex which is set at 10 ([1]; 100 μM) [%] | % increase over control relative to the maximal (5 mM) MMI-increased silencer complex which is set at 10 ([1]; 1 mM) [%] | % inhibition of class II RNA expression (MHC class II RNA; 100 μM) | % inhibition of class II RNA expression (MHC class II RNA; 1 mM) [%] | % increase in TG RNA expression (thyroglobulin RNA) [%] | increase of TG RNA levels compared with MMI (thyroglobulin RNA; Table 17, 1 mM) | Concentration to inhibit IFN-increased antigen expression, Class II [2] | % increase over control relative to the maximal (5 mM) MMI-increased silencer complex which is set at 10 ([1]; 5 mM) | increase of TG RNA levels (thyroglobulin RNA; Table 17, 1 mM) [fold] | endogenous class II antigen expression on the cell surface (flow cytometry, FIG. 12) ([2]; 5 mM MMI with 100 U/ml γ-IFN, 48 hours) | Animals with proteinuria, 30-500 (mg/dl proteinuria) ((NZB x NZW)F1 mice; 6 mos) | Animals with proteinuria, >500 (mg/dl proteinuria) ((NZB x NZW)F1 mice; 6 mos) | Animals with proteinuria, Neg-Trace (mg/dl proteinuria) ((NZB x NZW)F1 mice; 6 mos) | Animals with proteinuria, 30-500 (mg/dl proteinuria) ((NZB x NZW)F1 mice; 7.5 mos) | Animals with proteinuria, >500 (mg/dl proteinuria) ((NZB x NZW)F1 mice; 7.5 mos) | Animals with proteinuria, Neg-Trace (mg/dl proteinuria) ((NZB x NZW)F1 mice; 7.5 mos) | significant numbers of immune complexes in kidneys (FIG. 15) ((NZB x NZW)F1 mice; immunohistology of frozen kidney sections) | development of proteinuria at 7.5 mos ((NZB x NZW)F1 mice)
Cn1ccn(C)c1=S [Compound 8, N-Methylmethimazole] | 0 | 3 ± 2 | 9 ± 1 | 32 ± 5% | 59 ± 12 | 129 ± 7 | no comparable increase | 439 ± 93 µM | – | – | – | – | – | – | – | – | – | – | –
Cc1cnc(S)n1C [Compound 9, 5-Methylmethimazole] | 0 | 0 | 1.5 ± 1.5 | – | – | – | – | – | 2.5 ± 1% | – | – | – | – | – | – | – | – | – | –
CSc1nccn1C [Compound 7, S-Methylmethimazole] | 0 | 2 ± 1 | 6 ± 0.5 | 22 ± 17% | 62 ± 14 | 122 ± 14 | no comparable increase | 405 ± 15 µM | – | – | – | – | – | – | – | – | – | – | –
Cn1ccnc1S [Compound 1, 1-Methylimidazole-2-thiol] | 0 | 0 | 2 ± 1 | None | 29 ± 9 | 207 ± 10 | – | 5000 µM | 10% | ~2 | decreased endogenous class II antigen expression | 0 of 8 | 0 of 8 | 8 of 8 | 2 of 5 | 0 of 5 | 3 of 5 | not true | significantly prevented proteinuria
Cc1ccc2[nH]c(S)nc2c1 [Compound 6, 2-Mercapto-5-methylbenzimidazole] | 0 | 0 | 3 ± 2 | – | – | – | – | – | Insol | – | – | – | – | – | – | – | – | – | –
O=[N+]([O-])c1ccc2[nH]c(S)nc2c1 [Compound 5, 2-Mercapto-5-nitrobenzimidazole] | 0 | 0 | 0 | – | – | – | – | – | Insol | – | – | – | – | – | – | – | – | – | –
Sc1ncc[nH]1 [Compound 3, 2-Mercaptoimidazole] | 0 | 0 | 0 | – | – | – | – | No Inhibition | 0% | – | – | 4 of 7 | 0 of 7 | 3 of 7 | 3 of 6 | 3 of 6 | 0 of 6 | – | developed significant proteinuria
Sc1nc2ccccc2[nH]1 [Compound 4, 2-Mercaptobenzimidazole] | 0 | 3 ± 0.5 | 9 ± 1.5 | – | – | – | – | – | Insol | – | – | – | – | – | – | – | – | – | –
Cc1ncc([N+](=O)[O-])n1CCO [Compound 2, 2-Methyl-5-nitro-1-imidazole ethanol] | 0 | 0 | 5 ± 1 | 11 ± 10% | 45 ± 13 | – | – | 1500 ± 1000 µM | 10 ± 2% | – | – | – | – | – | – | – | – | – | –
